≈ marks a conversion by molar mass, not a printed value. Where a SMILES comes first, the peptide text is derived from it.
Tests used:
[1] = test system: P. aeruginosa cra4004 (PA 01); format: cell-based
Text: (§1) The experimental scheme reported in Figure 6 helped to simplify and optimize the in vitro testing of the antibacterial activity of the different AMPs. The initial transparent microtiter plate for the determination of the minimum inhibitory concentration (MIC) by optical density (OD) measurement was conveniently used as a starting point not only for the alterative determination of the MIC by luminescence but also for the minimum bactericidal concentration (MBC) and for the minimum biofilm inhibitory concentration (MBIC), as explained below. For every test peptide, at least three independent experiments were performed on each bacterial strain per test condition (100% MHB and 20% MHB). The sole exception to this rule was when MIC values were on rare occasions found to be greater than 500 µg/mL. Under these circumstances, two consecutive experiments were performed to confirm the results. In this case, the antibacterial activity was considered insignificant and the third experiment was generally considered unnecessary.
(§2) The antibacterial properties of the test AMPs were assayed under two distinct conditions of bacterial culture: (i) with bacteria cultured in undiluted Mueller–Hinton II Broth (MHB II) and (ii) with bacteria cultured in diluted MHB II as earlier described in Campoccia et al.. Briefly, a few colonies of each bacterial strain, taken from overnight cultures on Mueller–Hinton Agar plates (MHA, PO50007A, ThermoScientific, Thermo Fisher Scientific, Segrate, Italy), were resuspended in Mueller–Hinton II Broth (MHB II, 24107, Liofilchem, Roseto degli Abruzzi, Italy), either undiluted or at a 20% dilution in deionized water. The concentration of bacteria was adjusted to approximately 10^8 CFU/mL, as estimated by optical density reading at 625 nm, using a Hewlett Packard G1103A spectrophotometer (Waldbronn, Germany). The bacterial suspension was further diluted 1:100 in 100% or 20% MHB II.
(§3) Serial 1:2 dilutions of all the test peptides were prepared in sterile deionized water starting from a stock solution of 1 mg/mL. Microtiter plates (96-Well CytoOne® Plate, CC7672-7596, Starlab S.r.l., Milano, Italy) were prepared by adding a volume of 100 µL of inoculum to 100 µL of treatment. Each AMP dilution was assayed in triplicate; each microplate included triplicate wells for the blank (100 µL of sterile distilled water and 100 µL of sterile MHB II), and 3 to 6 wells for reference control of 100% growth (100 µL of sterile deionized water and 100 µL of MHB II inoculated with the bacterium). Positive controls were performed in triplicate wells with 100 µL of a 10 mg/mL gentamicin solution (G1272, Sigma Aldrich, Milan, Italy) and with 100 µL of a solution containing 10,000 units/mL of penicillin and 10,000 µg/mL of streptomycin (penicillin–streptomycin, 15140-122, Life Technologies, Monza, Italy).
(§4) The wells of the microplate, initially used for the determination of the MIC, were rinsed twice with 220 µL of phosphate-buffered solution (PBS) to remove loosely attached and planktonic bacteria. A total of 100 µL of fresh PBS and 100 µL of Bac-Titer Glo solution (G8231, Promega Italia S.r.l., Milan, Italy) were added to each well. After a 10 min incubation, a volume of 100 µL was transferred to a new microplate for luminescence determination as described above. As a general rule, the MBIC value was identified as the concentration at which a reduction of at least a log in the metabolic activity was observed.

[2] = test system: S. epidermidis cra4029 (SE 02); format: cell-based; conditions: cra4029 (SE 02)
Text: as §1, §2, §3, §4

[3] = test system: S. aureus cra4030 (SA 01); format: cell-based
Text: as §1, §2, §3, §4

[4] = test system: S. aureus cra2198 (SA 02); format: cell-based; conditions: cra2198 (SA 02, 24 h)
Text: as §1, §2, §3, §4

[5] = test system: E. faecalis cra4033 (EF 02); format: cell-based
Text: as §1, §2, §3, §4

E. coli cra4038 (EC) = format: cell-based; conditions: cra4038 (EC)
Text: as §1, §2, §3, §4

[6] = test system: P. aeruginosa cra3840 (PA 02); format: cell-based; conditions: cra3840 (PA 02, 24 h)
Text: as §1, §2, §3, §4

[7] = test system: P. aeruginosa cra4004 (PA 01); format: cell-based; remark: listed apart in the source
Text: as §1, §2, §3
(§5) After a 1-day incubation at 37 °C, the MIC was determined by two distinct methods: (1) optical density measurement and (2) bioluminescence reading. In the first case, the optical density of the microtiter plates was read directly at a wavelength of 600 nm and the MIC was estimated from the curves obtained by plotting the OD measurements. For the bioluminescence reading, after gentle resuspension, 100 µL of each treated culture was transferred to a new 96-well non-treated plate (236105/237105, Life Technologies, Monza, Italy) and the metabolic activity was determined by the kit Bac-Titer Glo Microbial Cell Viability Assay (G8231, Promega Italia S.r.l, Milan, Italy). Optical density and bioluminescence were read by a Modulus II multifunction plate reader (Turner BioSystems, Sunnyvale, CA, USA) or, alternatively, by an Infinite M Plex (Tecan Group Ltd., Männedorf, Switzerland). As earlier described in [24], in the case of luminescence, the MIC was identified from the curves of growth inhibition as the first concentration leading to a 1-log reduction in bacterial growth (i.e., 90% growth inhibition). […]

[8] = test system: P. aeruginosa cra3840 (PA 02); format: cell-based
Text: as §1, §2, §3, §5

[9] = test system: osteoblast-like MG63 cells; assay: LDH cytotoxicity assay on osteoblast-like cells; format: cell-based, human; conditions: 1% Tween-20, Positive Control, 24 h, mean, SD ± 4.2%
Experimental: MG63 cells (ATCC, Rockville, MD, USA) were thawed from a frozen stock and cultured in DMEM (11885-084, Thermo Fisher Scientific, Segrate, Italy) supplemented with non-inactivated 10% fetal bovine serum (FBS, F7524, Sigma-Aldrich, Milan, Italy) and 100× Penicillin/Streptomycin solution (P/S, 10,000 units penicillin and 10 mg streptomycin/mL, P4333, Sigma-Aldrich, Milan, Italy), under standard culture conditions (i.e., at 37 °C, in a humidified atmosphere with 5% CO2). Cells were regularly subcultured 2–3 times a week by using TrypLE Select 1× (GIBCO, Thermo Fisher Scientific, Segrate, Italy).
A suspension of MG63 cells was prepared in complete DMEM at a concentration of 5 × 10^4 cells/mL. […]
Cytotoxicity was assessed by measuring the release of lactate dehydrogenase (LDH) from damaged cells by the LDH Cytotoxicity Assay (ab197004, Abcam, Cambridge, UK), strictly following the instructions of the manufacturer. […] After 10 min shaking, the plate was read in fluorescence (excitation: 535 nm; emission 587 nm) by an Infinite 200 PRO mod. M PLEX multifunction plate reader (Tecan Group Ltd., Männedorf, Switzerland). […]
Data in relative fluorescence units (RFU) from the investigation on KSL-W suppression of S. aureus cytotoxicity were processed as follows. […]

In the case of `CC(C)[C@H](NC(=O)[C@H](CCCCN)NC(=O)[C@H](Cc1ccccc1)NC(=O)[C@@H](NC(=O)[C@@H](NC(=O)[C@H](CCCCN)NC(=O)[C@@H](N)CCCCN)C(C)C)C(C)C)C(=O)N[C@@H](CCCCN)C(=O)N[C@@H](Cc1ccccc1)C(=O)N[C@@H](CCCCN)C(=O)O` [KSL] (H-KKVVFKVKFK-OH), the “LR, Log10 reduction in bacterial metabolism for a given MBIC” value (from here on “LR, Log10 reduction”) [1] is reported as 3 LR, the “LR, Log10 reduction” value [2] is reported as 2 LR and the “LR, Log10 reduction” value ([3]; cra4030 (SA 01)) is reported as 2 LR. For the same compound, the MBIC ([3]; cra4030 (SA 01, 24 h)) was 1.95 µg/mL, the MBIC [4] was 31.25 µg/mL and the “LR, Log10 reduction” value ([5]; cra4033 (EF 02)) was 2 LR. For the same compound, the MBIC ([5]; cra4033 (EF 02, 24 h)) was 250 µg/mL, the “LR, Log10 reduction” value (E. coli cra4038 (EC)) was 3 LR and the MBIC [6] was 3.91 µg/mL. The MIC [7] was 3.91 µg/mL (≈ 3.13 µM) and the MIC [8] was 3.91 µg/mL (≈ 3.13 µM).

Tween-20 was tested, and the “cytotoxicity (LDH, % of Lysate Control)” value [9] was 50.3%.
